Data reported in patent publication US20110046066A1, “INHIBITORS OF IAP” (GENENTECH, INC., priority 2008, published 2011).
pIC50, pKi: −log10 of the molar value.

Legend:
[1] = biological target: T1, X-IAP BIR3 (Homo sapiens, UniProt P98170); assay: Fluorescence polarization peptide binding assay, X-IAP BIR3
T1 construct: 0.5 μM X-IAP BIR3
Procedure: (§1) Polarization experiments were performed on an Analyst HT 96-384 reader (Molecular Devices Corp.) in order to determine dissociation constants (Kd) between IAP protein BIR domains and the fluorescent probe. Samples for fluorescence polarization affinity experiments were prepared by addition of serial dilutions of IAP BIR domains (C-IAP1 BIR3, C-IAP-2 BIR3, ML/X-IAP chimera MLXBIR3SG and X-IAP BIR3) in polarization buffer (50 mM Tris [pH 7.2], 120 mM NaCl, 1% bovine globulins 5 mM DTT and 0.05% octylglucoside) to 5-carboxyflourescein-conjugated AVPdi-Phe-NH2 (AVP-diPhe-FAM) at 5 nM final concentration.
(§2) The reactions were read after an incubation time of 1 hour at room temperature with standard cut-off filters for the fluorescein fluorophore (λex=485 nm; λem=530 nm) in 384-well black plates (Molecular Devices Corp.). Fluorescence polarization values were plotted as a function of the protein concentration, and the effective concentration 50 (EC50) values were obtained by fitting the data to a 4-parameter equation using Kaleidagraph software (Synergy software, Reading, Pa.). The apparent Kd values were determined from the EC50 values. Inhibition Constants (Ki values) for the antagonists were determined by the addition of 0.06 μM MLXBIR3SG, 0.5 μM X-IAP BIR3, 0.2 μM C-IAP1 BIR3 or 0.4 μM C-IAP-2 BIR3 to wells containing 5 nM of the AVP-diPhe-FAM probe as well as 1:3 serial dilutions of antagonist compounds starting at a concentration of 200 μM in the polarization buffer. Samples were read after an incubation time of one hour. Fluorescence polarization values were plotted as a function of the antagonist concentration, and the IC50 values were obtained by fitting the data to a 4-parameter equation using Kaleidagraph software (Synergy software, Reading, Pa.). Ki values for the antagonists were determined from the IC50 values according to the procedure of Keating, S. M., Marsters, J, Beresini, M., Ladner, C., Zioncheck, K., Clark, K., Arellano, F., and Bodary, S. (2000) in Proceedings of SPIE: In Vitro Diagnostic Instrumentation (Cohn, G. E., Ed.) pp 128-137, Bellingham, Wash. […] All values are micromolar.

[2] = biological target: T2, ML/X-IAP chimera MLXBIR3SG (Homo sapiens, UniProt Q96CA5, S150G); assay: Fluorescence polarization peptide binding assay, MLXBIR3SG
T2 sequence (Q96CA5 with tags, fused parts or gaps S150G): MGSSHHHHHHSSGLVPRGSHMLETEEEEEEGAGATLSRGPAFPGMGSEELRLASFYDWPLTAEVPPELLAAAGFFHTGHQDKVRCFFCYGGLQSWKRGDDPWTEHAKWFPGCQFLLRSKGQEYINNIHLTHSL
Procedure: The following fluorescence polarization experiments used a chimeric BIR domain referred to as MLXBIR3SG in which 11 of 110 residues correspond to those found in XIAP BIR3, while the remainder correspond to ML-IAP BIR. […] The improved caspase-9 inhibition of the chimeric BIR domain MLXBIR3SG has been correlated with increased inhibition of doxorubicin-induced apoptosis when transfected into MCF7 cells.
as §1, §2

[3] = biological target: T3, C-IAP2 BIR3 (Homo sapiens, UniProt Q13489); assay: Fluorescence polarization peptide binding assay, C-IAP2 BIR3
T3 construct: 0.4 μM C-IAP-2 BIR3
T3 sequence (Q13489 238-349 limits assumed): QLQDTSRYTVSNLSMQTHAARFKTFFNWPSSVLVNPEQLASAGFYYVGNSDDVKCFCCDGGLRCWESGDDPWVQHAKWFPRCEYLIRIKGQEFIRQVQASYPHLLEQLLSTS
Procedure: as §1, §2

[4] = biological target: T4, C-IAP1 BIR3 (Homo sapiens, UniProt Q13490); assay: Fluorescence polarization peptide binding assay, C-IAP1 BIR3
T4 construct: 0.2 μM C-IAP1 BIR3
T4 sequence (Q13490 253-363 limits assumed): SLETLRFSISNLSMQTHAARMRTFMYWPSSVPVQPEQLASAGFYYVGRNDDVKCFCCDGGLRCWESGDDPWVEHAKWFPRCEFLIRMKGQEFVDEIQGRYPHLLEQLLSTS
Procedure: as §1, §2

[5] = determined from the IC50 values (procedure of Keating et al.)

T1 sequence (P98170 241-356 limits assumed): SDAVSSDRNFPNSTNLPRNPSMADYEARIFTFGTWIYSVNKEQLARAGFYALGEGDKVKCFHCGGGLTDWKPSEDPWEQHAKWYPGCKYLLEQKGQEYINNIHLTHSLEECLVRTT

pIC50 ([1]; 0.5 μM X-IAP BIR3, 5 nM AVP-diPhe-FAM probe, one hour incubation): < 3.70
pKi [1, 5]: < 4.46
pIC50 ([2]; 0.06 μM MLXBIR3SG, 5 nM AVP-diPhe-FAM probe, one hour incubation): 5.39
pKi [2, 5]: 6.03
pIC50 ([3]; 0.4 μM C-IAP-2 BIR3, 5 nM AVP-diPhe-FAM probe, one hour incubation): 5.88
pKi [3, 5]: 6.55
pIC50 ([4]; 0.2 μM C-IAP1 BIR3, 5 nM AVP-diPhe-FAM probe, one hour incubation): 5.88
pKi [4, 5]: 6.69
SMILES: CN[C@@H](C)C(=O)N[C@H](C(=O)N(C)[C@H](C(=O)Nc1snnc1-c1ccccc1)C(C)(C)C)C1CCCCC1 [Compound 24, (S)-2-((S)-2-cyclohexyl-N-methyl-2-((S)-2-(methylamino)propan-amido)acetamido)-3,3-dimethyl-N-(4-phenyl-1,2,3-thiadiazol-5-yl)butanamide]
